From article PMC2671474 (Chemistry & biology, 2009)

Tests used:
[1] = molecular target: P. falciparum FTase (Plasmodium falciparum, UniProt Q5EI73+Q5EI74); experiment: P. falciparum FTase activity assay as described in Glenn et al., 2006; assay type: biochemical; conditions: for Selectivity: IC50 for hFTase divided by IC50 for PfFTase
[2] = molecular target: Human FTase (Homo sapiens, UniProt P49354+P49356); conditions: legend of Figure 4C; mammalian enzyme
[3] = read-out: inhibition of P. falciparum FTase activity

| SMILES | inhibition at 0.0005 µM [1, 3] | inhibition at 0.005 µM [1, 3] | IC50 (in words) [2] | Selectivity [1] |
| --- | --- | --- | --- | --- |
| Cc1ccccc1S(=O)(=O)N(CCN(Cc1cncn1C)c1ccc(C#N)cc1)CC1CCN(C(=O)OC(C)(C)C)CC1 [Compound 5, N-(N-tert-Butoxycarbonylpiperidin-4-ylmethyl), N-({2-[(4-cyanophenyl)-(3-methyl-3H-imidazol-4-ylmethyl)-amino]-ethyl}) 2-methylbenzenesulfonamide] | 20% | 76% | – | – |
| Cn1cncc1CN(CCN(CC1CCN(C(=O)OC(C)(C)C)CC1)S(=O)(=O)c1ccccc1-c1cccc(CCC(=O)O)c1)c1ccc(C#N)cc1 [Compound 10, N-(N-tert-Butoxycarbonylpiperidin-4-ylmethyl), N-({2-[(4-cyanophenyl)-(3-methyl-3H-imidazol-4-ylmethyl)-amino]-ethyl}) (3′-(2-carboxyethyl)-biphenyl)-2-sulfonamide] | – | – | sub-micromolar | 11 |
| Cc1ccccc1S(=O)(=O)N(CCN(Cc1cncn1C)c1ccc(C#N)cc1)Cc1ccccc1 [Compound 7, N-Benzyl, N-{2-[(4-cyanophenyl)-(3-methyl-3H-imidazol-4-ylmethyl)-amino]-ethyl} 2-methyl-benzenesulfonamide] | – | – | – | 32 |
